This is an account of results in patent publication US20030157491A1, “HarA polypeptides and nucleic acids, and related methods and uses thereof” (priority 2002, published 2003).

Values after ≈ are worked out from the molar mass of the structure shown. Some results are limits rather than exact numbers.

The subject of test [1] is B. subtilis JH642 trpC2 pheA1 ("BS1"). The test can be described thus: MIC by broth microdilution, wild-type resistant B. subtilis JH642. It is filed as cell-based, Bacillus subtilis. The conditions noted are these: duplicate. As to the method: (§1) Quantitative assessment of resistance was performed by a broth microdilution method using cation-supplemented Mueller-Hinton broth containing antibiotics, the concentration of which varied in two-fold increments.
(§2) Preferably, the microdilution assay is performed using cation-adjusted Mueller-Hinton broth according to NCCLS (National Committee for Clinical Laboratory Standards) guideline M31 -A, Vol. 19, No. 11, “Performance standards for antimicrobial disk and dilution susceptibility tests for bacteria isolated from animals,” June 1999 (ISBN 1-56238-377-9), which is herein incorporated by reference.
(§3) To confirm the role of expZ in conferring resistance to hygromycin A analogues and other compounds, applicants examined the effect of B. subtilis and E. faecalis expZ expression and disruption on antibiotic resistance patterns. […] Also shown in Table 1 is the conferral of the “harA” phenotype on the normally drug-sensitive S. aureus RN4220 strain by transformation with a pMP plasmid containing B. subtilis harA.
A general note: Broth dilution looks for growth in wells or tubes with falling amounts of substance.

The next test concerns EF1 (harA::erm). The experiment in a line: MIC by broth microdilution, E. faecalis OG1X harA disruption mutant. It is filed as cell-based, Enterococcus faecalis. The conditions noted are these: for decrease in the MIC when the harA gene is disrupted: E. faecalis OG1X; for MIC: EF1 (harA::erm), disruption mutant, broth microdilution, duplicate; for susceptibility of strain OG1X harA::erm: E. faecalis harA::erm knockout strain.
Description: A PCR product corresponding to an internal segment of the E. faecalis harA gene was generated to obtain pVA891 -expZ by using the E. coli vector pVA891, which carries an ERM determinant that expresses in E. coli and E. faecalis. Briefly, internal harA primers were used (sense: 5′-[…]-3′-SEQ ID NO: 5); (antisense: 5′-[…]-3′-SEQ ID NO: 6) with E. faecalis genomic template DNA to generate a 665 bp PCR product. PCR-generated fragments were purified using the QIAquick PCR purification kit and cloned into the T-A cloning plasmid pGem-T Easy. The fragment was subsequently excised using EcoRI, gel purified using the S&S Elu-Quik kit, and cloned into the EcoRI site of pVA891. The ligation was transformed in E. coli DH5α with selection for erythromycin resistance (200 μg/mL); resulting in pVA891-expZ. The plasmid pVA891-expz was introduced by electroporation into E. faecalis OG1X (hygromycin resistant), where integrants occurring via homologous recombination were selected using erythromycin (20 μg/mL). The harA::erm knockout strain was confirmed by PCR and designated “OG1X harA::erm.” Strain OG1X harA::erm was hypersensitive to nonpolar hygromycin A analogues, lankacidin, virginiamycin and Synercid®. Revertants (i.e., resistant strains) could be obtained by growing for several generations in the absence of erythromycin and identified by screening for resistance to hygromycin A and sensitivity to erythromycin. Strain OG1X harA::erm was deposited with the ATCC on Sep. 26, 2000, and was accorded Accession No. PTA-2550.
as §1, §2, §3

In another test the test system is SA1 (pMP20). The test can be described thus: MIC by broth microdilution, S. aureus RN4220 with vector only (pMP20). It is filed as cell-based, Staphylococcus aureus. The procedure:
(§4) To identify genes whose products might be important in establishing the intrinsic level of resistance to hygromycins, applicants screened a recombinant library of B. subtilis chromosomal DNA segments cloned into the E. coli-S. aureus shuttle vector pMP20 for S. aureus transformants with increased levels of resistance to a hygromycin analogue, as follows:
(§5) Chromosomal DNA was extracted from a 100 mL culture of B. subtilis strain JH642 grown in L both, partially digested with Sau3A and fractionated by electrophoresis in a 1% agarose gel. A fraction corresponding in size to 2-4 kb was purified and used for ligation with pMP20 that had been digested with BamHI and dephosphorylated with alkaline phosphatase. Ligated DNA was used to transform E. coli DH5α by electroporation, with selection for ampicillin resistance. Transformant colonies were pooled; the plasmid DNA mixture was extracted and used to transform S. aureus RN4220 by electroporation with selection on plates containing erythromycin (2 μg/mL) and 2 μg/mL of a nonpolar hygromycin A analogue, 3-(4-((2S,4S,5R)-5-(3-(2,4-dichloro-phenoxy)-1-methyl)-(1E)-propenyl)-4-hydroxy-tetrahydro-furan-2-yloxy)-3-hydroxy-phenyl)-2-methyl-N-((3aS,4R,5R,6S,7R,7aR)-4,6,7-trihydroxy-hexahydro-benzo(1,3)dioxol-5-yl)-(2E)-acrylamide, which is Example 68 of WO 00/32616 and referred to herein as “Compound 1”.
(§6) Vector-transformed S. aureus cells were sensitive to this level of Compound 1. Plasmid segregation and backcross experiments confirmed that plasmids harboring DNA segments from the B. subtilis chromosome conferred hygromycin A resistance in S. aureus. The MIC for Compound 1 was increased in these strains from ≦0.2 μg/mL for pMP20 transformants to 50 μg/mL for cells transformed with the recombinant plasmids.
as §1, §2, §3

The subject of a further test is SA1 (pMP20 Bs_harA+). The test can be described thus: MIC by broth microdilution, S. aureus RN4220 with vector carrying B. subtilis harA. The settings on record: for increase in the MIC: sensitive S. aureus strain compared to same strain transformed with and expressing harA. In kind it is cell-based, Staphylococcus aureus. As to the method:
as §4, §5, §6, §1, §2, §3

A further test has as its system BS1 (harA::cat). The experiment in a line: MIC by broth microdilution, B. subtilis JH642 harA disruption mutant. It is filed as cell-based, Bacillus subtilis. The settings on record: for MIC: BS1 (harA::cat), disruption mutant, broth microdilution, duplicate; for susceptibility of strain JH642 expZ::CAT: B. subtilis harA::CAT insertion mutant.
Description: A B. subtilis strain expressing a harA::CAT insertion mutant was produced by single-crossover recombination using integrative plasmid pJPM1. Plasmid pJPM1 is a pSK^− derivative that carries the cat gene of S. aureus plasmid pC194 that confers chloramphenicol resistance in B. subtilis. […] However, if any DNA fragment providing a region of homology with the B. subtilis chromosome is inserted into this plasmid, it acquires the ability to transform B. subtilis competent cells to cat resistance at high frequency. The integration occurs via a Campbell-type (single crossover) recombination event that results in the duplication of the cloned region at either end of the vector. Reversal of the integration event leads to precise excision of the plasmid and restoration of gene structure on the chromosome. An internal fragment of the B. subtilis harA gene was excised using EcoRV and EcoRI and subcloned into compatible sites in pJPM1 creating plasmid pJPM1-expZ1. Plasmid pJPM1-expZ1 was used to transform the naturally competent B. subtilis strain JH642 (hygromycin-resistant) and transformants selected using chloramphenicol ([…]). A harA::CAT insertion mutant was confirmed by PCR and the strain was designated “JH642 expZ::CAT.” Strain JH642 expZ::CAT was hypersensitive to hygromycin analogues and other unrelated antibiotics including lankacidin and virginiamycin. Strain JH642 expZ::CAT was deposited with the ATCC on Sep. 26, 2000, and accorded Accession No. PTA-2480.
as §1, §2, §3

In a further test the test system is S. aureus RN4220 ("SA1"). The test can be described thus: MIC by broth microdilution, wild-type sensitive S. aureus RN4220. In kind it is cell-based, Staphylococcus aureus. The settings on record: duplicate. The procedure:
as §1, §2, §3

For test [2], the system named is E. faecalis OGX1 str gel ("EF1"). The test can be described thus: MIC by broth microdilution, wild-type resistant E. faecalis OG1X. It is filed as cell-based, Enterococcus faecalis. The settings on record: duplicate. The procedure: as §1, §2, §3
The mark [3] stands for this setting: SA1 (pMP20), wild-type, sensitive + vector only, broth microdilution, duplicate.
The mark [4] stands for this setting: SA1 (pMP20 Bs_harA+), sensitive + vector with B. subtilis harA, broth microdilution, duplicate.

For the compound “5-deoxy-5[4-[(2,6-dideoxy-β-D-erythro-hexofuranos-5-ulos-1-yl)oxy]-3-hydroxyphenyl]-2-methyl-1-oxo-2-(E)-propenyl]amino]-1,2-O-methylene-D-neo-inositol, (E)-O-[(3-chlorophenyl)methyl]oxime [Compound 2]”, the minimal inhibitory concentration (MIC) was 100 µg/mL in test [1]; “≦0.2 μg/mL” in the test with EF1 (harA::erm); “≦0.2 μg/mL” in the test with SA1 (pMP20) (setting [3]); 50 µg/mL in the test with SA1 (pMP20 Bs_harA+) (setting [4]); 0.39 µg/mL in the test with BS1 (harA::cat); “≦0.2 μg/mL” in the test on S. aureus RN4220 ("SA1"). The compound also registered an MIC in test [2] of 1.25 µg/mL. In addition, the “decrease in the MIC when the harA gene is disrupted” value (from here on “decrease in the MIC”) with EF1 (harA::erm) was “greater than 4 fold”.

Turning to `C/C(=C\c1ccc(O[C@H]2C[C@H](O)[C@@H](/C(C)=C/COc3ccc(Cl)cc3Cl)O2)c(O)c1)C(=O)N[C@@H]1[C@H](O)[C@@H](O)[C@H]2OCO[C@H]2[C@@H]1O` [Compound 1], the minimal inhibitory concentration (MIC) is 50 µg/mL (≈ 74.8 µM) in test [1]; “≦0.2 μg/mL” with EF1 (harA::erm); no more than 0.2 µg/mL in the test with SA1 (pMP20) (S. aureus pMP20 transformants (library selection, text)); “≦0.2 μg/mL” in the test with SA1 (pMP20) (setting [3]); 50 µg/mL in the test with SA1 (pMP20 Bs_harA+) (S. aureus cells transformed with the recombinant plasmids carrying B. subtilis DNA segments); 100 µg/mL in the test with SA1 (pMP20 Bs_harA+) (setting [4]). Also, the MIC entry in the test on BS1 (harA::cat) is “≦0.2 μg/mL”; against S. aureus RN4220 ("SA1"), “≦0.2 μg/mL”; in test [2] it was 1.25 µg/mL (≈ 1.87 µM). Besides, in the test on SA1 (pMP20) (2 μg/mL of compound on plates), the “sensitivity of vector-transformed S. aureus cells on selection plates” value is given as “sensitive”. The “increase in the MIC” value with SA1 (pMP20 Bs_harA+) is reported as roughly 500 fold.

Turning to `C/C(=C\c1ccc(O[C@@H]2O[C@H](/C(C)=N/OCc3cccc(Cl)c3)[C@@H](O)[C@@H]2O)c(O)c1)C(=O)N[C@@H]1[C@H](O)[C@@H](O)[C@H]2OCO[C@H]2[C@@H]1O` [Compound 3, 5-deoxy-5-[[3-[4-[(6-deoxy-β-D-arabino-hexofuranos-5-ulos-1-yl)oxy]-3-hydroxyphenyl]-2-methyl-1-oxo-2-(E)-propenyl]amino]-1,2-O-methylene-D-neo-inositol, (E)-O-[(3-chlorophenyl)methyl]oxime], the minimal inhibitory concentration (MIC) in test [1] is greater than 100 µg/mL; in the test on EF1 (harA::erm), “≦0.2 μg/mL”; with SA1 (pMP20) (setting [3]), 0.39 µg/mL; with SA1 (pMP20 Bs_harA+) (setting [4]), greater than 100 µg/mL; in the test with BS1 (harA::cat) it was 0.78 µg/mL; in the test with S. aureus RN4220 ("SA1") it was 0.39 µg/mL (≈ 0.599 µM). In test [2], this compound yielded a minimum inhibitory concentration (MIC) of 1.56 µg/mL (≈ 2.4 µM).

For `CC(=O)[C@H]1O[C@@H](Oc2ccc(/C=C(\C)C(=O)N[C@@H]3[C@H](O)[C@@H](O)[C@H]4OCO[C@H]4[C@@H]3O)cc2O)[C@@H](O)[C@@H]1O` [Hygromycin A], the minimum inhibitory concentration (MIC) in test [1] was determined as 250 µg/mL (≈ 489 µM); in the test on EF1 (harA::erm), 7.8 µg/mL; with SA1 (pMP20 Bs_harA+) (setting [4]) it was 250 µg/mL; in the test on BS1 (harA::cat), 15.6 µg/mL; with S. aureus RN4220 ("SA1") it was 31.3 µg/mL (≈ 61.2 µM); in test [2], 62.5 µg/mL (≈ 122 µM). Moreover, the “increase in the MIC” value with SA1 (pMP20 Bs_harA+) is reported as “about 8 fold”. The “decrease in the MIC” value with BS1 (harA::cat) (B. subtilis JH642) is on record as “about 16 fold”.

For `CC1=C\[C@@H](O)CC(=O)Cc2nc(co2)C(=O)N2CCC=C2C(=O)O[C@H](C(C)C)[C@H](C)/C=C/C(=O)NC\C=C\1` [Virginiamycin A], the MIC in test [1] is 25 µg/mL (≈ 47.6 µM); in the test on EF1 (harA::erm), 1.56 µg/mL; in the test on SA1 (pMP20) (setting [3]) it was 0.78 µg/mL; with SA1 (pMP20 Bs_harA+) (setting [4]) it was 50 µg/mL; in the test with BS1 (harA::cat), 0.78 µg/mL; with S. aureus RN4220 ("SA1"), 0.78 µg/mL (≈ 1.48 µM). Moreover, the minimal inhibitory concentration (MIC) in test [2] is 25 µg/mL (≈ 47.6 µM). The “susceptibility of strain OG1X harA::erm” value in the test with EF1 (harA::erm) was “hypersensitive”. Further, the “susceptibility of strain JH642 expZ::CAT” value in the test on BS1 (harA::cat) is “hypersensitive”.

With Lankacidin, the minimum inhibitory concentration (MIC) in test [1] was greater than 100 µg/mL; in the test on EF1 (harA::erm) it was 0.39 µg/mL; in the test with SA1 (pMP20 Bs_harA+) (setting [4]), greater than 100 µg/mL; in the test with BS1 (harA::cat), 1.56 µg/mL; in the test on S. aureus RN4220 ("SA1"), 3.13 µg/mL; in test [2], greater than 100 µg/mL. Moreover, the “decrease in the MIC” value in the test on EF1 (harA::erm) was “greater than 100 fold”. The “susceptibility of strain OG1X harA::erm” value with EF1 (harA::erm) is reported as “hypersensitive”. The “susceptibility of strain JH642 expZ::CAT” value with BS1 (harA::cat) is reported as “hypersensitive”.

The MIC is the lowest concentration that inhibits growth of the organism.
